What was measured:
[1] = Comparative intrinsic dissolution testing (Wood's apparatus); type: physicochemical; settings: 900 mL distilled water, 37° C., 50 rpm, sample compressed at 1.5 metric tons for 1 minute
Procedure: Intrinsic dissolution rate (IDR) measurements were performed using a Wood's apparatus. Samples were prepared by compressing an amount (267 mg Form II; 258 mg APO-I) of sample at 1.5 metric tons for 1 minute. A dissolution medium consisting of 900 mL distilled water maintained at 37° C., and rotation speed of 50 rpm, was used for each experiment.

[2] = PXRD study of crystalline form stability in a 27° C./60% RH stability chamber; type: physicochemical; settings: capped and uncapped samples, at least 5 weeks
Procedure: Remdesivir Form APO-I can be characterized by a PXRD diffractogram comprising, among other peaks, characteristic peaks, expressed in degrees 2θ (±0.2°), at 4.0°, 17.0° and 20.3°. Preferably, the PXRD diffractogram further comprises at least three peaks, expressed in degrees 2θ (±0.2°), selected from the group consisting of 10.4°, 13.0°, 14.1°, 15.3°, 17.5°, 18.3°, 22.1°, 23.9°, 25.1° and 25.9°. More preferably, the PXRD diffractogram further comprises peaks, expressed in degrees 2θ (±0.2°), at 10.4°, 13.0°, 14.1°, 15.3°, 17.5°, 18.3°, 22.1°, 23.9°, 25.1° and 25.9°.
The PXRD diffractogram was recorded on a Bruker D8 Discover powder X-ray diffractometer (Bruker-AXS, Karlsruhe, Germany). The generator was a Micro-focus X-ray source (Incoatec IμS Cu anode, λ=1.54060 Å) with a voltage of 50 kV and current of 1.00 mA. X-rays were focused with a micro mask 0.1 mm plug-in microslit. One frame was collected using a still scan with a PILATUS3 R 100K-A detector at the distance of 154.72 mm from the sample. Raw data was evaluated using the program EVA (Bruker-AXS, Karlsruhe, Germany).

CCC(CC)COC(=O)[C@H](C)N[P@](=O)(OC[C@H]1O[C@@](C#N)(c2ccc3c(N)ncnn23)[C@H](O)[C@@H]1O)Oc1ccccc1 [Remdesivir Form APO-I]
Intrinsic Dissolution Rate [1]: 0.013 mg min^−1 cm^−2
Change in crystalline form by PXRD (polymorphic stability) [2]: no change in the crystalline form occurred

CCC(CC)COC(=O)[C@H](C)N[P@](=O)(OC[C@H]1O[C@@](C#N)(c2ccc3c(N)ncnn23)[C@H](O)[C@@H]1O)Oc1ccccc1 [Remdesivir Form II, reference compound]
Intrinsic Dissolution Rate [1]: 0.0083 mg min^−1 cm^−2
